Laboratory results from the kinase profiling compilation of Christmann-Franck et al. (2016).

Experiments:
Assay in all cases: radiometric filter-binding kinase assay
ROCK2 (rat) = settings: accession and sequence are those of the human protein
CHEK2 (human) = CHEK2 (human) (UniProt O96017)
MAP3K7 TAB1 (human) = MAP3K7 TAB1 (human) (UniProt Q15750+O43318)
MAPKAPK5 (human) = MAPKAPK5 (human) (UniProt Q8IW41)
TTK (human) = TTK (human) (UniProt P33981)
CLK2 (human) = CLK2 (human) (UniProt P49760)
[1] = tested on: SGK1 (human), O00141 [S422D]
IRAK4 (human) = IRAK4 (human) (UniProt Q9NWZ3)
TAOK1 (human) = TAOK1 (human) (UniProt Q7L7X3)
MAPK14 (human) = MAPK14 (human) (UniProt Q16539)
PIM1 (human) = PIM1 (human) (UniProt P11309)
MYLK (human) = MYLK (human) (UniProt Q15746)
EPHA2 (human) = EPHA2 (human) (UniProt P29317)
NEK2 (human) = NEK2 (human) (UniProt P51955)
IKBKE (human) = IKBKE (human) (UniProt Q14164)
MAPKAPK2 (human) = MAPKAPK2 (human) (UniProt P49137)
STK3 (human) = STK3 (human) (UniProt Q13188)
DAPK1 (human) = DAPK1 (human) (UniProt P53355)
EPHB2 (human) = EPHB2 (human) (UniProt P29323)
PIM3 (human) = PIM3 (human) (UniProt Q86V86)
MELK (human) = MELK (human) (UniProt Q14680)
GCK (human) = GCK (human) (UniProt Q12851)
PRKCA (human) = PRKCA (human) (UniProt P17252)
MAPK12 (human) = MAPK12 (human) (UniProt P53778)
FLT1 (human) = FLT1 (human) (UniProt P17948)
PKN2 (human) = PKN2 (human) (UniProt Q16513)
MARK1 (human) = MARK1 (human) (UniProt Q9P0L2)
MARK2 (human) = MARK2 (human) (UniProt Q7KZI7)
DYRK2 (human) = DYRK2 (human) (UniProt Q92630)
EPHB1 (human) = EPHB1 (human) (UniProt P54762)
DYRK3 (human) = DYRK3 (human) (UniProt O43781)
[2] = tested on: RPS6KB1 (human), P23443 [T412E]
EPHB4 (human) = EPHB4 (human) (UniProt P54760)
HIPK2 (human) = HIPK2 (human) (UniProt Q9H2X6)
RPS6KA1 KD1 KD2 (human) = RPS6KA1 KD1 KD2 (human) (UniProt Q15418)

Chain of HIPK2 (human) (Q9H2X6 whole entry, looked up): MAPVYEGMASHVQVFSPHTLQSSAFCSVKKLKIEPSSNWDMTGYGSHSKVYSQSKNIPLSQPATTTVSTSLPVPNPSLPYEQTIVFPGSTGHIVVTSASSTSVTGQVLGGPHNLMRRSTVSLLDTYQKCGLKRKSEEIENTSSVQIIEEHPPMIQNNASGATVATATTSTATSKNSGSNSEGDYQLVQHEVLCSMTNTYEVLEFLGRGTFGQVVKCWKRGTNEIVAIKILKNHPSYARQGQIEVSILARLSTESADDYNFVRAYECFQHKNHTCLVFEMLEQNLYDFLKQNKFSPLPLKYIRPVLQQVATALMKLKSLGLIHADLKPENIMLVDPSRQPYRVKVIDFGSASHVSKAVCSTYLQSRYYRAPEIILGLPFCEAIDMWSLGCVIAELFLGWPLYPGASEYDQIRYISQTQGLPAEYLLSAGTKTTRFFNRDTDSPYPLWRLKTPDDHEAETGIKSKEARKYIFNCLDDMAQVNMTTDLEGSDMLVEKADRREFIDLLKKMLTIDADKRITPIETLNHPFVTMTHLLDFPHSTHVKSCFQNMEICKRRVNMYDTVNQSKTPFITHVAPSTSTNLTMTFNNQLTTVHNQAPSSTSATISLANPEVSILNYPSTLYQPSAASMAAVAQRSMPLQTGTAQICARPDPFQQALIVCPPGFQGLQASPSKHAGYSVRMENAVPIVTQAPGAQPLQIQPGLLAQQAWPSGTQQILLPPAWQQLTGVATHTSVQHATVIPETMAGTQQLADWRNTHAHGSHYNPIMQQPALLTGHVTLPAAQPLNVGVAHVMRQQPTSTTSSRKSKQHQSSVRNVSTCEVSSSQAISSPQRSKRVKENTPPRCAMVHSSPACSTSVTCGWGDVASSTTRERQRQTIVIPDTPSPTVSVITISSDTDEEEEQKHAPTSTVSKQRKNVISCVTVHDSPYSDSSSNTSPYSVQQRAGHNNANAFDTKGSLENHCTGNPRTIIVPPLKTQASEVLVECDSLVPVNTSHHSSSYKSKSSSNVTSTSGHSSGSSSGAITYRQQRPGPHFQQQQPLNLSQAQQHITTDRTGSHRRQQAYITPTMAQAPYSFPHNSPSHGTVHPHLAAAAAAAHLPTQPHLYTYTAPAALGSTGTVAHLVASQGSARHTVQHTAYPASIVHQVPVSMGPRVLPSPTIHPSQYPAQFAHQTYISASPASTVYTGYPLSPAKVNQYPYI
Chain of MAPK14 (human) (Q16539 whole entry, looked up): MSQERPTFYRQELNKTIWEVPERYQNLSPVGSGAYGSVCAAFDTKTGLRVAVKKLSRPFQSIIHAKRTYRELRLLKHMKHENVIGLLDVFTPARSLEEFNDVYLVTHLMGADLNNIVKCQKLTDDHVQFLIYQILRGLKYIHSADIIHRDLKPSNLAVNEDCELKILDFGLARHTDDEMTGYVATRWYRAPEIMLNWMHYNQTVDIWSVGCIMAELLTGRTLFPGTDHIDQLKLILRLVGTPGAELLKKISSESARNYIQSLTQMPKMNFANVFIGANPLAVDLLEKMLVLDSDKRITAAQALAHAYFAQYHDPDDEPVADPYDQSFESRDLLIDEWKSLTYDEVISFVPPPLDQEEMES
Chain of STK3 (human) (Q13188 whole entry, looked up): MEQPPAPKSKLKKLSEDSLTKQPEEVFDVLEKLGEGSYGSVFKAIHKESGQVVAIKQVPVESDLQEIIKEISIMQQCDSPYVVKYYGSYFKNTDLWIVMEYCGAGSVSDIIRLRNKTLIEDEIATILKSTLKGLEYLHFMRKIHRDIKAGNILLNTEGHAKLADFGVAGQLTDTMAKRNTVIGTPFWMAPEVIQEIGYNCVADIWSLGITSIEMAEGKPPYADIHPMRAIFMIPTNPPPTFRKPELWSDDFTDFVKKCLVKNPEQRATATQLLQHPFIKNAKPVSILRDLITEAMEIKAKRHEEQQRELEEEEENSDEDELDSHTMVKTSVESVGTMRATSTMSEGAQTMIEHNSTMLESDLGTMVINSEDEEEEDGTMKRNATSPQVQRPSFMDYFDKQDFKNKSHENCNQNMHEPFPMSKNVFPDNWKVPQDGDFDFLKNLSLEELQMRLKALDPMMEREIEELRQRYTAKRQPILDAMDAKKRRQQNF
Chain of MAPK12 (human) (P53778 whole entry, looked up): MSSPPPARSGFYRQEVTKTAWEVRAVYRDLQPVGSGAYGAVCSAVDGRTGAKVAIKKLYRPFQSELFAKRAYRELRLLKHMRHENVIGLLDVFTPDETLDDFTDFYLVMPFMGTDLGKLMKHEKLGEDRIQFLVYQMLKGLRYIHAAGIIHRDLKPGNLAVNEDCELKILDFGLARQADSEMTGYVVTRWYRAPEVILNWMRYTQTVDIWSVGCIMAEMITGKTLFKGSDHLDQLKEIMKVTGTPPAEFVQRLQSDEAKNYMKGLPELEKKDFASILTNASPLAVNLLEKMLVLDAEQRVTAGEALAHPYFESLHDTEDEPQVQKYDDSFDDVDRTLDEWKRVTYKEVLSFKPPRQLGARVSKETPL
Chain of FLT1 (human) (P17948 whole entry, looked up): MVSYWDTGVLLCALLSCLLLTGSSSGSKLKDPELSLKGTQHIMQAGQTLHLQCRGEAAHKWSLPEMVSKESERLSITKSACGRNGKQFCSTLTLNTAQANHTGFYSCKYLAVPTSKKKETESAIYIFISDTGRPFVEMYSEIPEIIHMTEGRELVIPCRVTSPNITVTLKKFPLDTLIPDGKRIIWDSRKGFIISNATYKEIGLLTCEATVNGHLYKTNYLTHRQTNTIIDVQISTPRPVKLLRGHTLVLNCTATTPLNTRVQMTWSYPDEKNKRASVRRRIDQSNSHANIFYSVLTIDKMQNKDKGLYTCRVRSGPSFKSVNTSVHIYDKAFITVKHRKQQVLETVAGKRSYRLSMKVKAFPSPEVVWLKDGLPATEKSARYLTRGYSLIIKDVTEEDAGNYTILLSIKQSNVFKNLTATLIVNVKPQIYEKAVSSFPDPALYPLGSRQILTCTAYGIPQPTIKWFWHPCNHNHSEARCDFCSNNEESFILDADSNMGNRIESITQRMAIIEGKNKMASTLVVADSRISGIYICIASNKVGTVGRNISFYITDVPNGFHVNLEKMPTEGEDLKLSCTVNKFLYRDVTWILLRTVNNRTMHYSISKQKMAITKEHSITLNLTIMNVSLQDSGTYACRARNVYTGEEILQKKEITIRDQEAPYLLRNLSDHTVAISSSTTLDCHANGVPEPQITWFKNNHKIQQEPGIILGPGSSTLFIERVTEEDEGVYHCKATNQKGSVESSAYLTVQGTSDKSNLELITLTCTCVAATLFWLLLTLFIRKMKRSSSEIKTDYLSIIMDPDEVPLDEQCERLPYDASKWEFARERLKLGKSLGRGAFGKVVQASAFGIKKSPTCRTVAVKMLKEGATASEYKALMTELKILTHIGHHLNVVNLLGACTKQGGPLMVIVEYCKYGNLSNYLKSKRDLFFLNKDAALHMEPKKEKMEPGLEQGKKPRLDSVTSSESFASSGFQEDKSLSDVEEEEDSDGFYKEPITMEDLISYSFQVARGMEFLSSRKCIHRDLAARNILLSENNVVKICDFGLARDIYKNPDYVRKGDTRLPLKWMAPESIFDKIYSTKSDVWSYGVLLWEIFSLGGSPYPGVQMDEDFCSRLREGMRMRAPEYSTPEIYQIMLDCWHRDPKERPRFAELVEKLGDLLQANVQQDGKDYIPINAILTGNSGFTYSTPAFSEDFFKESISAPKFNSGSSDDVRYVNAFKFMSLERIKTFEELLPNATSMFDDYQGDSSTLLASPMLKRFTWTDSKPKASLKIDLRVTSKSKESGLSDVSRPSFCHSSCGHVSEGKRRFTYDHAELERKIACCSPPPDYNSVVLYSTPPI
Chain of MAPKAPK2 (human) (P49137 whole entry, looked up): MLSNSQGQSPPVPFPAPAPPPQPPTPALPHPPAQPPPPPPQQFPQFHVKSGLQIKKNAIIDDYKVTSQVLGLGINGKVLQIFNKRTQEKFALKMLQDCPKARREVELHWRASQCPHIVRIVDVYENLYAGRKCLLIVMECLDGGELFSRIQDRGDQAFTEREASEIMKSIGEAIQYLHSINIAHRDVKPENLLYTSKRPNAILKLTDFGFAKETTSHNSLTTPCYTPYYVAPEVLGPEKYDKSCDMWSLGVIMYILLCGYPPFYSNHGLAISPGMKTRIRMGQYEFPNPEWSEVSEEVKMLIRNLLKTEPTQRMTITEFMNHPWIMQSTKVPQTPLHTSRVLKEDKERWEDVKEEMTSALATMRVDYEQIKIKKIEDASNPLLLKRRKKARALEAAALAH
Chain of IKBKE (human) (Q14164 whole entry, looked up): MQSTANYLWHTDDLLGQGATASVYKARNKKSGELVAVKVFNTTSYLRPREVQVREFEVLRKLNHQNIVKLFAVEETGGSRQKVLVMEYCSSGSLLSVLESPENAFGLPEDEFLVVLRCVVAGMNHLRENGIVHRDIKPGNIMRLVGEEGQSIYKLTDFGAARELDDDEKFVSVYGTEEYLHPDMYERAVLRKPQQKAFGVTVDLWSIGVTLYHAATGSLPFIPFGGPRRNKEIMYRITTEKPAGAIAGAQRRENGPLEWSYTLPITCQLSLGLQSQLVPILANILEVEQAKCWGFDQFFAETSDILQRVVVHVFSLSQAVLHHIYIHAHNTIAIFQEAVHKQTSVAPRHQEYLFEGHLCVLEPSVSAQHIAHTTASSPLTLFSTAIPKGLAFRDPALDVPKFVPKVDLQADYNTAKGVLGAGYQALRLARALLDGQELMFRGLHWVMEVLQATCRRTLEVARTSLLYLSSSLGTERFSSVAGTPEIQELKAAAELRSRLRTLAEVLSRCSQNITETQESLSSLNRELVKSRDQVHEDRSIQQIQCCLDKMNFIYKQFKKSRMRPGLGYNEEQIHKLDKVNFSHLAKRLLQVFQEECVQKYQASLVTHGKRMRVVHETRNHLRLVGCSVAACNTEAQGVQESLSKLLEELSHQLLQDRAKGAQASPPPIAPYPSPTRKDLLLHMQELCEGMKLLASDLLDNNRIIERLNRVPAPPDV

residual activity (ROCK2 (rat); compound 1.0 µM): 95% | residual activity (ROCK2 (rat); compound 5.0 µM): 87% | residual activity (ROCK2 (rat); compound 10.0 µM): 78% | residual activity (CHEK2 (human); compound 1.0 µM): 58% | residual activity (CHEK2 (human); compound 5.0 µM): 34% | residual activity (CHEK2 (human); compound 10.0 µM): 94% | residual activity (MAP3K7 TAB1 (human); compound 1.0 µM): 47% | residual activity (MAP3K7 TAB1 (human); compound 5.0 µM): 15% | residual activity (MAPKAPK5 (human); compound 1.0 µM): 86% | residual activity (MAPKAPK5 (human); compound 5.0 µM): 46% | residual activity (MAPKAPK5 (human); compound 10.0 µM): 102% | residual activity (TTK (human); compound 1.0 µM): 68% | residual activity (TTK (human); compound 5.0 µM): 40% | residual activity (CLK2 (human); compound 1.0 µM): 77% | residual activity (CLK2 (human); compound 5.0 µM): 48% | residual activity ([1]; compound 1.0 µM): 89% | residual activity ([1]; compound 5.0 µM): 48% | residual activity ([1]; compound 10.0 µM): 107% | residual activity (IRAK4 (human); compound 1.0 µM): 47% | residual activity (IRAK4 (human); compound 5.0 µM): 9% | residual activity (TAOK1 (human); compound 1.0 µM): 103% | residual activity (TAOK1 (human); compound 5.0 µM): 102% | residual activity (MAPK14 (human); compound 1.0 µM): 80% | residual activity (MAPK14 (human); compound 5.0 µM): 68% | residual activity (MAPK14 (human); compound 10.0 µM): 83% | residual activity (PIM1 (human); compound 1.0 µM): 37% | residual activity (PIM1 (human); compound 5.0 µM): 15% | residual activity (PIM1 (human); compound 10.0 µM): 46% | residual activity (MYLK (human); compound 1.0 µM): 74% | residual activity (MYLK (human); compound 5.0 µM): 51% | residual activity (MYLK (human); compound 10.0 µM): 87% | residual activity (EPHA2 (human); compound 1.0 µM): 91% | residual activity (EPHA2 (human); compound 5.0 µM): 75% | residual activity (EPHA2 (human); compound 10.0 µM): 97% | residual activity (NEK2 (human); compound 1.0 µM): 10% | residual activity (NEK2 (human); compound 5.0 µM): 8% | residual activity (NEK2 (human); compound 10.0 µM): 54% | residual activity (IKBKE (human); compound 1.0 µM): 7% | residual activity (IKBKE (human); compound 5.0 µM): 4% | residual activity (IKBKE (human); compound 10.0 µM): 70% | residual activity (MAPKAPK2 (human); compound 1.0 µM): 90% | residual activity (MAPKAPK2 (human); compound 5.0 µM): 69% | residual activity (MAPKAPK2 (human); compound 10.0 µM): 76% | residual activity (STK3 (human); compound 1.0 µM): 5% | residual activity (STK3 (human); compound 5.0 µM): 6% | residual activity (STK3 (human); compound 10.0 µM): 51% | residual activity (DAPK1 (human); compound 1.0 µM): 101% | residual activity (DAPK1 (human); compound 5.0 µM): 83% | residual activity (EPHB2 (human); compound 1.0 µM): 137% | residual activity (EPHB2 (human); compound 5.0 µM): 169% | residual activity (PIM3 (human); compound 1.0 µM): 76% | residual activity (PIM3 (human); compound 5.0 µM): 17% | residual activity (PIM3 (human); compound 10.0 µM): 58% | residual activity (MELK (human); compound 1.0 µM): 13% | residual activity (MELK (human); compound 5.0 µM): 14% | residual activity (MELK (human); compound 10.0 µM): 97% | residual activity (GCK (human); compound 1.0 µM): 30% | residual activity (GCK (human); compound 5.0 µM): 2% | residual activity (PRKCA (human); compound 1.0 µM): 91% | residual activity (PRKCA (human); compound 5.0 µM): 48% | residual activity (PRKCA (human); compound 10.0 µM): 65% | residual activity (MAPK12 (human); compound 1.0 µM): 97% | residual activity (MAPK12 (human); compound 5.0 µM): 99% | residual activity (MAPK12 (human); compound 10.0 µM): 103% | residual activity (FLT1 (human); compound 1.0 µM): 6% | residual activity (FLT1 (human); compound 5.0 µM): 4% | residual activity (FLT1 (human); compound 10.0 µM): 47% | residual activity (PKN2 (human); compound 1.0 µM): 72% | residual activity (PKN2 (human); compound 5.0 µM): 30% | residual activity (PKN2 (human); compound 10.0 µM): 87% | residual activity (MARK1 (human); compound 1.0 µM): 65% | residual activity (MARK1 (human); compound 5.0 µM): 38% | residual activity (MARK2 (human); compound 1.0 µM): 85% | residual activity (MARK2 (human); compound 5.0 µM): 66% | residual activity (DYRK2 (human); compound 1.0 µM): 68% | residual activity (DYRK2 (human); compound 5.0 µM): 45% | residual activity (DYRK2 (human); compound 10.0 µM): 64% | residual activity (EPHB1 (human); compound 1.0 µM): 118% | residual activity (EPHB1 (human); compound 5.0 µM): 102% | residual activity (DYRK3 (human); compound 1.0 µM): 54% | residual activity (DYRK3 (human); compound 5.0 µM): 33% | residual activity (DYRK3 (human); compound 10.0 µM): 74% | residual activity ([2]; compound 1.0 µM): 56% | residual activity ([2]; compound 5.0 µM): 14% | residual activity ([2]; compound 10.0 µM): 3% | residual activity (EPHB4 (human); compound 1.0 µM): 109% | residual activity (EPHB4 (human); compound 5.0 µM): 119% | residual activity (HIPK2 (human); compound 1.0 µM): 24% | residual activity (HIPK2 (human); compound 5.0 µM): 15% | residual activity (HIPK2 (human); compound 10.0 µM): 73% | residual activity (RPS6KA1 KD1 KD2 (human); compound 1.0 µM): 78% | residual activity (RPS6KA1 KD1 KD2 (human); compound 5.0 µM): 62%
SMILES: Oc1ccc2ccccc2c1SSc1c(O)ccc2ccccc12
